Measurements published in PMC12029836, “Phytotoxicity, Cytotoxicity, and Antimicrobial Activity of Triethanolammonium Amino Acids Salts” (Molecules, 2025).
Values joined by “and” are separate entries in the source; they are usually repeats but may differ in a detail not shown here. Identical values can stand only once. Like-named read-outs stand apart in the source and are kept apart here.

Key:
cress [1] = test system: cress; set-up: method as in doi:10.1134/S0036023620090089; conditions: cited from earlier work
NIH/3T3 = test system: NIH/3T3; set-up: method as in doi:10.1039/C4TX00079J; conditions: NIH/3T3 ref 39; cited from earlier work
CaCo-2 = test system: CaCo-2; set-up: method as in doi:10.1039/C4TX00079J; conditions: CaCo-2 ref 39; cited from earlier work
[2] = set-up: method as in PMID 28665154; conditions: cited from earlier work
[3] = test system: 3T3 cell (mouse embryonic fibroblasts); conditions: cited from earlier work
cress [4] = test system: cress; set-up: method as in PMID 19052732; conditions: cress seed, highest concentration of 1000 mg L^−1 ref 17; cited from earlier work
[5] = test system: Lepidium sativum L. roots; conditions: 24 h incubation, mean(±SD), n = 3
L929 fibroblasts = experiment: Mammalian cell cytotoxicity screening, resazurin viability; assay type: cell-based, mouse
C. albicans ATCC 10231 = experiment: Antimicrobial activity, broth microdilution MIC/MBC; assay type: cell-based, Candida albicans; conditions: C. albicans ATCC 10231, 24 h at 37 °C, at least 90% growth inhibition; nd—not detected
S. aureus ATCC 6538 = experiment: as above; assay type: cell-based, Staphylococcus aureus; conditions: S. aureus ATCC 6538, 24 h at 37 °C, at least 90% growth inhibition; nd—not detected
E. coli ATCC 8739 = experiment: as above; assay type: cell-based, Escherichia coli; conditions: nd—not detected; for MIC (%): E. coli ATCC 8739, 24 h at 37 °C, at least 90% growth inhibition; for MBC (%): E. coli ATCC 8739
[6] = test system: Lepidium sativum L. seeds; conditions: 24 h incubation, mean(±SD), n = 3
E. coli = test system: E. coli; set-up: method as in doi:10.3139/113.110524; conditions: E. coli ref 49; cited from earlier work
[7] = 0.01% (w/w) compound in the medium
[8] = 0.03% (w/w) compound in the medium
[9] = 0.05% (w/w) compound in the medium
[10] = 0.10% (w/w) compound in the medium
[11] = 0.30% (w/w) compound in the medium
[12] = 0.50% (w/w) compound in the medium
[13] = 1.00% (w/w) compound in the medium
[14] = 2.00% (w/w) compound in the medium
[15] = 3.00% (w/w) compound in the medium
[16] = 4.00% (w/w) compound in the medium
[17] = 5.00% (w/w) compound in the medium

Compound: O=C(O)c1ccccc1O.OCCN(CCO)CCO [TEA salicylate]
- effect on root and shoot length (cress [1]; 0.03 mg L^−1 ref 12): significant inhibition effect

Compound: O=C(O)C=Cc1ccccc1.OCCN(CCO)CCO [TEA salt of cinnamic acid]
- effect on cress seed germination and root growth (cress [1]; 0.003 and 0.03 mg L^−1 ref 12): most visible stimulation

Compound: CCCCn1cc[n+](C)c1 [[BMIM][(L)-Lac]]
- IC50 (NIH/3T3): 33.6 mM
- IC50 (CaCo-2): 19.2 mM

Compound: CCCCn1cc[n+](C)c1.C[C@H](N)C(=O)[O-] [[BMIM][Ala]]
- IC50 (NIH/3T3): 30.2 mM
- IC50 (CaCo-2): 19.3 mM

Compound: CCCCn1cc[n+](C)c1 [[BMIM][BF4]]
- IC50 (NIH/3T3): 11.3 mM
- IC50 (CaCo-2): 11.2 mM

Compound: CCCCn1cc[n+](C)c1 [[BMIM][PF6]]
- IC50 (CaCo-2): 11.5 mM

Compound: C[N+](C)(C)CCO.N[C@@H](CCC(=O)O)C(=O)[O-] [[Cho][Glu]]
- IC50 [2]: 0.43 % (v/v)

Compound: C[N+](C)(C)CCO.NCC(=O)[O-] [[Cho][Gly]]
- Cell viability [3]: over 90%

Compound: NCC(=O)O [[Cho][Gly]]
- IC50 ([3]; 3T3 cells, 48 h, printed also as (1%) ref 34): ~55 mM

Compound: C[N+](C)(C)CCO.NC(Cc1ccccc1)C(=O)[O-] (stereo not drawn) [[Cho][Phe]]
- IC50 [2]: 0.42 % (v/v)

Compound: CCn1cc[n+](C)c1.[Cl-] [[EMIM][Cl]]
- decrease in germination (cress [4]): 85%

Compound: CCCCCCn1cc[n+](C)c1.[Cl-] [[HMIM][Cl]]
- decrease in germination (cress [4]): 100%

Compound: NCCCC[C@H](N)C(=O)O.OCCN(CCO)CCO [[TEA][Lys]]
- Inhibition of the root growth in pregerminated Lepidium sativum seeds (IRG, %) [5, 7]: 9.2(±1.9) %
- Inhibition of the root growth in pregerminated Lepidium sativum seeds (IRG, %) [5, 8]: 14.6(±2.1) %
- Inhibition of the root growth in pregerminated Lepidium sativum seeds (IRG, %) [5, 9]: 20.0(±1.9) %
- Inhibition of the root growth in pregerminated Lepidium sativum seeds (IRG, %) [5, 10]: 24.5(±1.9) %
- Inhibition of the root growth in pregerminated Lepidium sativum seeds (IRG, %) [5, 11]: 52.7(±1.7) %
- Inhibition of the root growth in pregerminated Lepidium sativum seeds (IRG, %) [5, 12]: 62.3(±1.2) %
- Inhibition of the root growth in pregerminated Lepidium sativum seeds (IRG, %) [5, 13]: 63.5(±0.9) %
- Inhibition of the root growth in pregerminated Lepidium sativum seeds (IRG, %) [5, 14]: 78.9(±0.8) %
- Inhibition of the root growth in pregerminated Lepidium sativum seeds (IRG, %) [5, 15]: 84.9(±0.8) %
- Inhibition of the root growth in pregerminated Lepidium sativum seeds (IRG, %) [5, 16]: 90.2(±0.6) %
- Inhibition of the root growth in pregerminated Lepidium sativum seeds (IRG, %) [5, 17]: 94.9(±0.5) %
- ED20 (L929 fibroblasts; 24h exposure): 0.23±0.01%
- ED50 (L929 fibroblasts; 24h exposure): 0.43±0.01%
- ED80 (L929 fibroblasts; 24h exposure): 0.69±0.02%
- ED20 (L929 fibroblasts; 48h exposure): 0.21±0.01%
- ED50 (L929 fibroblasts; 48h exposure): 0.33±0.01%
- ED80 (L929 fibroblasts; 48h exposure): 0.46±0.01%
- MIC (%) (C. albicans ATCC 10231): 0.94%
- MIC (%) (S. aureus ATCC 6538): 1.88%
- MIC (%) (E. coli ATCC 8739): 0.94%
- MBC (%) (E. coli ATCC 8739): 3.75%
- Inhibition of the Lepidium sativum seeds germination (ISG, %) [6, 7]: 0.0(±0.0) %
- Inhibition of the Lepidium sativum seeds germination (ISG, %) [6, 8]: 0.0(±0.0) %
- Inhibition of the Lepidium sativum seeds germination (ISG, %) [6, 9]: 0.0(±0.0) %
- Inhibition of the Lepidium sativum seeds germination (ISG, %) [6, 10]: 0.0(±0.0) %
- Inhibition of the Lepidium sativum seeds germination (ISG, %) [6, 11]: 0.0(±0.0) %
- Inhibition of the Lepidium sativum seeds germination (ISG, %) [6, 12]: 0.0(±0.0) %
- Inhibition of the Lepidium sativum seeds germination (ISG, %) [6, 13]: 1.9(±0.8) %
- Inhibition of the Lepidium sativum seeds germination (ISG, %) [6, 14]: 11.5%
- Inhibition of the Lepidium sativum seeds germination (ISG, %) [6, 15]: 38.5%
- Inhibition of the Lepidium sativum seeds germination (ISG, %) [6, 16]: 57.7(±3.1) %

Compound: O=C(O)[C@@H]1CCCN1.OCCN(CCO)CCO [[TEA][Pro]]
- Inhibition of the root growth in pregerminated Lepidium sativum seeds (IRG, %) [5, 7]: 0.0(±0.0) %
- Inhibition of the root growth in pregerminated Lepidium sativum seeds (IRG, %) [5, 8]: 20.7(±2.1) %
- Inhibition of the root growth in pregerminated Lepidium sativum seeds (IRG, %) [5, 9]: 27.3(±2.2) %
- Inhibition of the root growth in pregerminated Lepidium sativum seeds (IRG, %) [5, 10]: 39.5(±1.9) %
- Inhibition of the root growth in pregerminated Lepidium sativum seeds (IRG, %) [5, 11]: 57.5(±1.5) %
- Inhibition of the root growth in pregerminated Lepidium sativum seeds (IRG, %) [5, 12]: 67.7(±1.1) %
- Inhibition of the root growth in pregerminated Lepidium sativum seeds (IRG, %) [5, 13]: 74.5(±1.2) %
- Inhibition of the root growth in pregerminated Lepidium sativum seeds (IRG, %) [5, 14]: 83.0(±0.7) %
- Inhibition of the root growth in pregerminated Lepidium sativum seeds (IRG, %) [5, 15]: 88.2(±0.6) %
- Inhibition of the root growth in pregerminated Lepidium sativum seeds (IRG, %) [5, 16]: 90.1(±0.8) %
- Inhibition of the root growth in pregerminated Lepidium sativum seeds (IRG, %) [5, 17]: 92.0(±0.7) %
- ED20 (L929 fibroblasts; 24h exposure): 0.32±0.05%
- ED50 (L929 fibroblasts; 24h exposure): 0.56±0.04%
- ED80 (L929 fibroblasts; 24h exposure): 0.86±0.14%
- ED20 (L929 fibroblasts; 48h exposure): 0.35±0.04%
- ED50 (L929 fibroblasts; 48h exposure): 0.64±0.04%
- ED80 (L929 fibroblasts; 48h exposure): 1.00±0.13%
- MIC (%) (C. albicans ATCC 10231): 7.50%
- MIC (%) (S. aureus ATCC 6538): 7.50%
- MIC (%) (E. coli ATCC 8739): 7.50%
- MBC (%) (E. coli ATCC 8739): 7.50%
- Inhibition of the Lepidium sativum seeds germination (ISG, %) [6, 7]: 3.7(±0.5) %
- Inhibition of the Lepidium sativum seeds germination (ISG, %) [6, 8]: 6.5(±0.5) %
- Inhibition of the Lepidium sativum seeds germination (ISG, %) [6, 9]: 9.3(±0.5) %
- Inhibition of the Lepidium sativum seeds germination (ISG, %) [6, 10]: 16.7(±0.8) %
- Inhibition of the Lepidium sativum seeds germination (ISG, %) [6, 11]: 18.5(±0.5) %
- Inhibition of the Lepidium sativum seeds germination (ISG, %) [6, 12]: 20.4(±1.3) %
- Inhibition of the Lepidium sativum seeds germination (ISG, %) [6, 13]: 25.9(±1.3) %
- Inhibition of the Lepidium sativum seeds germination (ISG, %) [6, 14]: 29.6(±0.9) %
- Inhibition of the Lepidium sativum seeds germination (ISG, %) [6, 15]: 40.7(±0.5) %
- Inhibition of the Lepidium sativum seeds germination (ISG, %) [6, 16]: 51.9(±0.5) %
- Inhibition of the Lepidium sativum seeds germination (ISG, %) [6, 17]: 79.6(±0.5) %

Compound: NC(CO)C(=O)O.OCCN(CCO)CCO [[TEA][Ser]]
- Inhibition of the root growth in pregerminated Lepidium sativum seeds (IRG, %) [5, 7]: 0.0(±0.0) % and 0%
- Inhibition of the root growth in pregerminated Lepidium sativum seeds (IRG, %) [5, 8]: 0.0(±0.0) % and 0%
- Inhibition of the root growth in pregerminated Lepidium sativum seeds (IRG, %) [5, 9]: 0.0(±0.0) % and 0%
- Inhibition of the root growth in pregerminated Lepidium sativum seeds (IRG, %) [5, 11]: 14.6%
- Inhibition of the root growth in pregerminated Lepidium sativum seeds (IRG, %) [5, 12]: 25.3%
- Inhibition of the root growth in pregerminated Lepidium sativum seeds (IRG, %) [5, 13]: 70.2(±0.7) %
- Inhibition of the root growth in pregerminated Lepidium sativum seeds (IRG, %) [5, 14]: 77.8(±0.6) %
- Inhibition of the root growth in pregerminated Lepidium sativum seeds (IRG, %) [5, 15]: 79.5(±0.6) %
- Inhibition of the root growth in pregerminated Lepidium sativum seeds (IRG, %) [5, 16]: 81.3(±0.5) %
- Inhibition of the root growth in pregerminated Lepidium sativum seeds (IRG, %) [5, 17]: 91.2(±0.4) %
- ED20 (L929 fibroblasts; 24h exposure): 0.26±0.03%
- ED50 (L929 fibroblasts; 24h exposure): 0.55±0.04%
- ED80 (L929 fibroblasts; 24h exposure): 0.98±0.11%
- MIC (%) (C. albicans ATCC 10231): 3.75%
- MIC (%) (S. aureus ATCC 6538): 7.50%
- MIC (%) (E. coli ATCC 8739): 7.50%
- MBC (%) (E. coli ATCC 8739): 7.50%
- Inhibition of the Lepidium sativum seeds germination (ISG, %) [6, 7]: 0.0(±0.0) %
- Inhibition of the Lepidium sativum seeds germination (ISG, %) [6, 8]: 0.0(±0.0) %
- Inhibition of the Lepidium sativum seeds germination (ISG, %) [6, 9]: 0.0(±0.0) %
- Inhibition of the Lepidium sativum seeds germination (ISG, %) [6, 10]: 2.8(±1.7) %
- Inhibition of the Lepidium sativum seeds germination (ISG, %) [6, 11]: 5.7(±1.3) %
- Inhibition of the Lepidium sativum seeds germination (ISG, %) [6, 12]: 6.6(±0.9) %
- Inhibition of the Lepidium sativum seeds germination (ISG, %) [6, 13]: 7.5(±1.7) %
- Inhibition of the Lepidium sativum seeds germination (ISG, %) [6, 14]: 17.0(±0.5) %
- Inhibition of the Lepidium sativum seeds germination (ISG, %) [6, 16]: 34.0(±2.6) %

Compound: benzalkonium chloride
- MIC (E. coli): 15 µg/mL
